Experimental data as given in patent publication US20110162437A1, “Biomarker for Mitochondrial Toxicity Associated with Phospholipidosis” (priority 2006, published 2011).
Values joined by “and” are separate entries in the source; they are usually repeats but may differ in a detail not shown here. Equal entries are not always repeated. “Also recorded” adds a separate entry of the source. Values belong to the compound of their own block, whether it stands above or below them.

Key:
[1] = potential to induce phospholipidosis judged from amphiphilicity and basic pKa; settings: from reduced amphiphilicity and basic pKa
From the text: The structural difference between both molecules can be mainly characterized by the exchange of the piperazine against a morpholine moiety in compound 2.

Male Wistar rats = assay: PAG measurement by 1H NMR in urine after single oral dose, ratio versus time-matched controls; type: in vivo, rat; settings: for PAG: urine, individual animals; for dose dependant change of PAG levels in urine: normalized to time matched controls
Protocol: (§1) All animals received (human) care as specified by Swiss law and in accordance with the “Guide for the care and use of laboratory animals” published by the NIH. Male Wistar rats (5 animals/dose-group) were purchased from RCC (Füllingsdorf, Switzerland) and housed individually. Treated animals were dosed orally by gavage with several doses of test compounds (Table 1). Control animals received the same volume of vehicle as placebo. Necropsy was performed 48 (subgroup A) or 168 hours (subgroup B) after a single administration (=Day 1) and urine samples were collected in metabolism cages at 0 to 4° C. (automatically refrigerated by a Tecniplast sampling/cooling unit (RACK B940, Tecniplast, USA)) at the intervals given in the sampling schedule in Table 2 into labelled sample tubes containing 1 ml of an aqueous Na-azide (1%) solution. Before aliquoting, urine volumes were determined.
Urine samples were taken on day -7,-2,-1, 1, 2, 3, 4, 5, 6 and 7, whereby Day 1 was the Day of dosing.
Immediately after reaching the end of the sampling period, the volume was determined and the samples were centrifuged at 3000 u/min (500 g) for 10 minutes.
Aliquot: Approximately 2 ml was transferred in 1.8 ml cryvials, round bottom, freestanding, with screw caps and septum for NMR-spectroscopic examinations (Bruker Analytik GmbH, Rheinstetten, Germany, Bruker part No. 85372). The vials were stored at −80° C.
Urine samples were prepared and measured on a Bruker 500 MHz NMR instrument according to the COMET 1H-NMR protocol (Keun, H. C et al., (2002) Physiological variation and analytical reproducibility in metabonomic urinalysis. Chem. Res. Tox. 15, 1380-1386) and as described above. In total 467 urine samples were analyzed. After measurement, all data were processed by XWINMR 3.5.6 (Bruker Biospin AG, Fällanden). Representative spectra are depicted in FIG. 2. Phase correction and baseline correction were performed with NMRPROC 0.3 (T. Ebbels, H. Keun; Imperial College). Spectral data were binned using AMIX 2.6 (Bruker Biospin AG, Fällanden) following the COMET Data Processing & Pattern Recognition protocol (Keun, H. C., et al., (2002) Physiological variation and analytical reproducibility in metabonomic urinalysis. Chem. Res. Tox. 15, 1380-1386). QC check procedures (Dieterle F., Ross A., Schlotterbeck G., Senn H. (2006) Probabilistic Quotient Normalization as Robust Method to Account for Dilution of Complex Biological Mixtures. Application in 1H NMR Metabonomics. Anal. Chem. 78, 4281-4290) were applied on binned data to detect outliers. In total 7 outliers were detected and removed from further analysis. All data were mean-centered and normalized using the probabilistic quotient normalization (Dieterle F., Ross A., Schlotterbeck G., Senn H. (2006) Probabilistic Quotient Normalization as Robust Method to Account for Dilution of Complex Biological Mixtures. Application in 1H NMR Metabonomics. Anal. Chem. 78, 4281-4290.). All binned data were annotated and transferred to the ANT (ANT: Affymetrix NMR Toxicology Data System) database.
The exact PAG quantification was performed according to following procedure: • Baseline subtraction of spectra • Integration of PAG peaks ((=7.47 ppm, (=7.39 ppm, (=3.79 ppm, and (=3.7 ppm respectively) and Citrate region ((=2.66-2.74 ppm and 2.50-2.58 ppm). • Quotient normalization (Dieterle F., Ross A., Schlotterbeck G., Senn H. (2006) Probabilistic Quotient Normalization as Robust Method to Account for Dilution of Complex Biological Mixtures. Application in 1H NMR Metabonomics. Anal. Chem. 78, 4281-4290.) • Divide each of the PAG bins by its average (all spectra) to correct for different relaxation times and number of protons • Calculate median out of the PAG bins • Calculate ratio versus time-matched controls

basic pKa value = type: physicochemical
lymphocytes = assay: Electron microscopic examination of buffy coat lymphocytes for lamellar bodies (determination of phospholipidosis); type: in vivo, rat; settings: for lymphocytes %, pos. / lymphocytes positive (with lamellar bodies) / Result, PL (grade of severity of phospholipidosis): individual rats; for lymphocytes containing cytoplasmic lamellar bodies (finding in words): rats, single oral dose, necropsy 48 or 168 hours after application
Protocol: as §1
Blood samples (as much as possible) were withdrawn from all animals at necropsy at about 48 hours after dosing (subgroup A) and about 168 hours after dosing (subgroup B)
The samples were collected from the abdominal aorta or by cardiac puncture under terminal anaesthesia (CO2). A total of at least 2 ml blood was required to gain buffy coat (buffy coat=leukocyte band) samples.
After fixation in 2.5% glutaraldehyde, the buffy coat samples from all animals were embedded in Epon. […] All thin sections were examined ultrastructurally. If possible, 200 lymphocytes per sample were examined for lamellar bodies. The results per sample include the total number of lymphocytes examined, the total number of positive lymphocytes (i.e. with lamellar bodies), the percentage of positive lymphocytes and a grading of severity of phospholipidosis (criteria see table 4)

[2] = High_Dose group, Time 0 (within 8 hours before treatment)
[3] = High_Dose group, Time 8 (within 8 hours after treatment)
[4] = High_Dose group, Time 24 (within 8 to 24 hours after treatment)
[5] = High_Dose group, Time −16 (1 day before treatment)
[6] = Low_Dose group, Time 0 (within 8 hours before treatment)
[7] = Low_Dose group, Time 8 (within 8 hours after treatment)
[8] = Low_Dose group, Time 24 (within 8 to 24 hours after treatment)
[9] = Low_Dose group, Time 48 (2 days after treatment)
[10] = Low_Dose group, Time −16 (1 day before treatment)
[11] = rat, single oral dose, both dose groups
[12] = 1000 mg/kg/day, necropsy 48 hours after application
[13] = 1000 mg/kg/day, necropsy 168 hours after application
[14] = rat, low-dosed animals (300 mg/kg)
[15] = 300 mg/kg/day, necropsy 168 hours after application
[16] = 300 mg/kg/day, necropsy 48 hours after application, 300 mg/kg/day
[17] = 300 mg/kg/day, necropsy 168 hours after application, 300 mg/kg/day
[18] = 1500 mg/kg/day, necropsy 48 hours after application, 1500 mg/kg/day
[19] = 1500 mg/kg/day, necropsy 168 hours after application, 1500 mg/kg/day

dose dependant change of PAG levels in urine (Male Wistar rats; [11]): No significant dose dependant change
pKa (basic pKa value): 4.07
Structure (SMILES): CN(C(=O)C(C)(C)c1cc(C(F)(F)F)cc(C(F)(F)F)c1)c1cnc(N2CCOCC2)cc1-c1ccccc1Cl [Compound 2, 2-(3,5-Bis-trifluoromethyl-phenyl)-N-[4-(2-chloro-phenyl)-6-morpholin-4-yl-pyridin-3-yl]-N-methyl-isobutyramide]
potential to induce phospholipidosis [1]: low potential
PAG (Male Wistar rats; [2]): 0.3191 and 0.4082 and 0.1757 and 0.4688 and 0.3904 and 0.3807 and 0.4568 and 0.5015 and 0.3805 and 0.4405
PAG (Male Wistar rats; [3]): 0.6552 and 0.2654 and 0.3244 and 0.3661 and 0.5090 and 0.8253 and 0.6223 and 0.6794 and 0.5865 and 0.5553
PAG (Male Wistar rats; [4]): 0.4048 and 0.3363 and 0.1408 and 0.3750 and 0.4284 and 0.6538 and 0.4408 and 0.2588 and 0.4111 and 0.3592
PAG (Male Wistar rats; [5]): 0.6280 and 0.3499 and 0.4531 and 0.5078 and 0.6008 and 0.3961 and 0.6035 and 0.5396 and 0.6968
PAG (Male Wistar rats; High_Dose group, Time −40 (2 days before treatment)): 0.5320 and 0.2568 and 0.4805 and 0.4717 and 0.4514 and 0.4760 and 0.6419 and 0.7515 and 0.6794 and 0.7696
PAG (Male Wistar rats; [6]): 0.6632 and 0.5179 and 0.2795 and 0.6376 and 0.3104 and 0.3524 and 0.4991 and 0.5273 and 0.2959 and 0.3191
PAG (Male Wistar rats; [7]): 0.8897 and 0.6310 and 0.3915 and 1.2919 and 0.3580 and 0.9744 and 0.3039 and 0.7208 and 0.6353 and 0.4304
PAG (Male Wistar rats; [8]): 0.6934 and 0.3762 and 0.4835 and 0.8446 and 0.3743 and 0.5615 and 0.3777 and 0.4892 and 0.3393 and 0.4166
PAG (Male Wistar rats; [9]): 0.6453 and 0.3298 and 0.3762 and 0.7958 and 0.1879
PAG (Male Wistar rats; [10]): 1.0275 and 1.1002 and 0.4610 and 1.3440 and 0.2541 and 0.7357 and 0.5260 and 0.6162 and 0.5218 and 0.4132
PAG (Male Wistar rats; Low_Dose group, Time −40 (2 days before treatment)): 0.3418 and 0.5238 and 0.5336 and 0.7115 and 0.6105 and 0.5232
PAG levels of both dose groups versus time matched controls (Male Wistar rats; rat, single oral dose 300 and 1000 mg/kg): comparable to their time matched controls
lymphocytes %, pos. (lymphocytes; [12]): 0%
lymphocytes positive (with lamellar bodies) (lymphocytes; [12]): 0
lymphocytes %, pos. (lymphocytes; [13]): 0%
lymphocytes positive (with lamellar bodies) (lymphocytes; [13]): 0
lymphocytes containing cytoplasmic lamellar bodies (finding in words) (lymphocytes): did not show any lymphocytes with lamellar bodies; also recorded: not affected; also recorded: did not show any lymphocytes containing cytoplasmic lamellar bodies

increase of mean PAG levels compared to time matched controls (Male Wistar rats; rat, high-dosed animals (1500 mg/kg)): 4 fold
mean PAG levels remaining elevated until the end of the study (Male Wistar rats; rat, high-dosed animals (1500 mg/kg), until 168 h): 3-4 fold
increase of mean PAG levels compared to time matched controls (factor) (Male Wistar rats; [14]): two
mean levels of PAG at time points later than 72 h (Male Wistar rats; [14]): fall below control samples
start of PAG elevation after dosing (Male Wistar rats; [11]): 24 h
dose dependant change of PAG levels in urine (Male Wistar rats; [11]): significant dose dependant elevation
pKa (basic pKa value): 7.67
Structure (SMILES): Cc1ccccc1-c1cc(N2CCN(C)CC2)ncc1N(C)C(=O)C(C)(C)c1cc(C(F)(F)F)cc(C(F)(F)F)c1 [Compound 1, 2-(3,5-Bis-trifluoromethyl-phenyl)-N-methyl-N-[6-(4-methyl-piperazin-1-yl)-4-o-tolyl-pyridin-3-yl]-isobutyramide]
potential to induce phospholipidosis [1]: high potential
PAG (Male Wistar rats; [2]): 0.3099 and 0.4951 and 0.2661 and 0.1961 and 0.1580 and 0.3419 and 0.1895 and 0.2711 and 0.3305 and 0.4159
PAG (Male Wistar rats; [3]): 0.8523 and 0.4093 and 0.7986 and 0.5172 and 0.2995 and 0.4361 and 0.5473 and 0.4307 and 1.0174 and 0.3275
PAG (Male Wistar rats; [4]): 1.7579 and 1.3035 and 1.4190 and 0.4001 and 0.8788 and 1.2898 and 1.4210 and 1.9488 and 1.6305 and 1.2496
PAG (Male Wistar rats; [5]): 0.7486 and 0.5615 and 0.6169 and 0.5637 and 0.4281 and 0.4828 and 0.2993 and 0.4535 and 0.5361 and 0.5442
PAG (Male Wistar rats; High_Dose group, Time −144 (7 days before treatment)): 0.7666 and 0.8823 and 1.0974 and 0.6021 and 1.2709 and 1.0355
PAG (Male Wistar rats; [6]): 0.3142 and 0.2440 and 0.3422 and 0.2530 and 0.3700 and 0.6319 and 0.3708 and 0.3307 and 0.2336
PAG (Male Wistar rats; [7]): 1.1423 and 0.5270 and 0.3918 and 0.5331 and 0.6815 and 0.2977 and 0.6756 and 0.7527 and 0.4111 and 0.3688
PAG (Male Wistar rats; [8]): 0.6300 and 0.8072 and 1.0165 and 0.7250 and 0.5035 and 0.6637
PAG (Male Wistar rats; [9]): 0.7584 and 0.6368 and 0.9878 and 0.6461 and 1.0386 and 0.3452 and 0.5698 and 0.3492 and 0.6477
PAG (Male Wistar rats; [10]): 0.2393 and 0.4349 and 0.5528 and 0.5649 and 0.8171 and 0.3201 and 0.5236 and 0.6045 and 0.4646 and 0.2537
PAG (Male Wistar rats; Low_Dose group, Time −144 (7 days before treatment)): 0.8210 and 1.1559 and 0.9260 and 0.7456 and 0.8081 and 0.6038 and 1.5903 and 1.1241 and 0.9275 and 0.8848
recovery of phospholipidosis 168 hours after application (lymphocytes; 300 mg/kg/day): partial or complete recovery
phospholipidosis severity (group assessment) (lymphocytes; 300 mg/kg/day, necropsied 48 hours after application): minimal to slight
incidence of affected lymphocytes (range over animals) (lymphocytes; 300 mg/kg/day, necropsied 48 hours after application, data from 3 animals): 5-12%
incidence of affected lymphocytes (range over animals) (lymphocytes; [15]): 0-1%
phospholipidosis severity (group assessment) (lymphocytes; [15]): minimal or not present
recovery of phospholipidosis within 168 hours after application (lymphocytes; 1500 mg/kg/day): no indications of recovery
lymphocytes affected (range) (lymphocytes; 1500 mg/kg/day, both time points (48 and 168 hours)): 15-31%
phospholipidosis severity (group assessment) (lymphocytes; 1500 mg/kg/day, necropsied 48 hours after application): moderate to marked
incidence of affected lymphocytes (range over animals) (lymphocytes; 1500 mg/kg/day, necropsied 48 hours after application, data from 4 animals): 15-31%
phospholipidosis severity (group assessment) (lymphocytes; 1500 mg/kg/day, sacrificed 168 hours after application): moderate to marked
incidence of affected lymphocytes (range over animals) (lymphocytes; 1500 mg/kg/day, sacrificed 168 hours after application, data from 4 animals): 21-31%
Result, PL (grade of severity of phospholipidosis) (lymphocytes; [16]): 1 (≦5%: minimal) and 2 (>5-15%: slight) (2×)
lymphocytes %, pos. (lymphocytes; [16]): 5% and 5.7% and 12.2%
lymphocytes positive (with lamellar bodies) (lymphocytes; [16]): 10 and 8 and 23
Result, PL (grade of severity of phospholipidosis) (lymphocytes; [17]): 1 (≦5%: minimal)
lymphocytes %, pos. (lymphocytes; [17]): 0% (2×) and 1.1% and 1% and 0.8%
lymphocytes positive (with lamellar bodies) (lymphocytes; [17]): 0 (2×) and 2 (2×) and 1
Result, PL (grade of severity of phospholipidosis) (lymphocytes; [18]): 3 (>15-25%: moderate) (2×) and 4 (>25: marked) (2×) and (2) (>5-15%: slight)
lymphocytes %, pos. (lymphocytes; [18]): 18.8% and 15.1% and 31% and (5.8) % and 25.7%
lymphocytes positive (with lamellar bodies) (lymphocytes; [18]): 36 and 19 and 61 and (3) and 29
Result, PL (grade of severity of phospholipidosis) (lymphocytes; [19]): 4 (>25: marked) (2×) and 3 (>15-25%: moderate) (2×)
lymphocytes %, pos. (lymphocytes; [19]): 31% and 21% and 28.2% and 24%
lymphocytes positive (with lamellar bodies) (lymphocytes; [19]): 62 and 42 and 29 and 25
lymphocytes containing cytoplasmic lamellar bodies (finding in words) (lymphocytes): seen and occurred dose dependently
